Experimental data taken from the kinase profiling compilation of Christmann-Franck et al. (2016).

Legend:
Assay in all cases: Free Choice Kinase Assay Projects, Flashplate
[1] = target: AKT1 (human) (UniProt P31749); details: compound 10.0 µM; ATP 3 µM
[2] = target: AURKA (human) (UniProt O14965); details: compound 10.0 µM; ATP 10 µM
[3] = target: AURKB (human) (UniProt Q96GD4); details: compound 10.0 µM; ATP 10 µM
[4] = target: AXL (human) (UniProt P30530); details: compound 10.0 µM; ATP 0.3 µM
[5] = system: BRAF (human), P15056 [V600E]; details: compound 10.0 µM; ATP 3 µM
[6] = target: CDK2 CCNA2 (human) (UniProt P24941+P20248); details: compound 10.0 µM; ATP 0.3 µM
[7] = target: CDK4 CCND1 (human) (UniProt P11802+P24385); details: compound 10.0 µM; ATP 3 µM
[8] = target: CSNK2A1 (human) (UniProt P68400); details: compound 10.0 µM; ATP 0.1 µM
[9] = target: EGFR (human) (UniProt P00533); details: compound 10.0 µM; ATP 0.3 µM
[10] = target: EPHB4 (human) (UniProt P54760); details: compound 10.0 µM; ATP 1 µM
[11] = target: ERBB2 (human) (UniProt P04626); details: compound 10.0 µM; ATP 1 µM
[12] = target: IGF1R (human) (UniProt P08069); details: compound 10.0 µM; ATP 1 µM
[13] = target: KDR (human) (UniProt P35968); details: compound 10.0 µM; ATP 1 µM
[14] = target: MAP3K8 (human) (UniProt P41279); details: compound 10.0 µM; ATP 3 µM
[15] = target: MAPK10 (human) (UniProt P53779); details: compound 10.0 µM; ATP 0.3 µM
[16] = target: MAPK14 (human) (UniProt Q16539); details: compound 10.0 µM; ATP 1 µM
[17] = target: MET (human) (UniProt P08581); details: compound 10.0 µM; ATP 0.3 µM
[18] = target: NUAK1 (human) (UniProt O60285); details: compound 10.0 µM; ATP 1 µM
[19] = target: PDGFRB (human) (UniProt P09619); details: compound 10.0 µM; ATP 0.3 µM
[20] = target: PLK1 (human) (UniProt P53350); details: compound 10.0 µM; ATP 1 µM
[21] = target: PLK4 (human) (UniProt O00444); details: compound 10.0 µM; ATP 0.3 µM
[22] = target: PTK2 (human) (UniProt Q05397); details: compound 10.0 µM; ATP 1 µM
[23] = target: SRC (human) (UniProt P12931); details: compound 10.0 µM; ATP 0.3 µM
[24] = target: TEK (human) (UniProt Q02763); details: compound 10.0 µM; ATP 1 µM

Chain of AKT1 (human) (P31749 whole entry, looked up): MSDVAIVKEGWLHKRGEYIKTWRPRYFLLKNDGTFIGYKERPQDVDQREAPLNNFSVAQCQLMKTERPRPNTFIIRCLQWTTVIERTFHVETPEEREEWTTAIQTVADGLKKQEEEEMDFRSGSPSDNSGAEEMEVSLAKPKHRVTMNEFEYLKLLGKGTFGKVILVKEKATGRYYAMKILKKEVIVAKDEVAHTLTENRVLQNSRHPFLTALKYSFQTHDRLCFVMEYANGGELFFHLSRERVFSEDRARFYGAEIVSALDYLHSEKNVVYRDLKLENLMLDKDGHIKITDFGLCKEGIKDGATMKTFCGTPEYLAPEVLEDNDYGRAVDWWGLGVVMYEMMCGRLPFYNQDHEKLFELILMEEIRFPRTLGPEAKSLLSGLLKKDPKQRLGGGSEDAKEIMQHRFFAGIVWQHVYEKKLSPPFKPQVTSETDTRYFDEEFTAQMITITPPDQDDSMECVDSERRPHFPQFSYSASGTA
Chain of IGF1R (human) (P08069 whole entry, looked up): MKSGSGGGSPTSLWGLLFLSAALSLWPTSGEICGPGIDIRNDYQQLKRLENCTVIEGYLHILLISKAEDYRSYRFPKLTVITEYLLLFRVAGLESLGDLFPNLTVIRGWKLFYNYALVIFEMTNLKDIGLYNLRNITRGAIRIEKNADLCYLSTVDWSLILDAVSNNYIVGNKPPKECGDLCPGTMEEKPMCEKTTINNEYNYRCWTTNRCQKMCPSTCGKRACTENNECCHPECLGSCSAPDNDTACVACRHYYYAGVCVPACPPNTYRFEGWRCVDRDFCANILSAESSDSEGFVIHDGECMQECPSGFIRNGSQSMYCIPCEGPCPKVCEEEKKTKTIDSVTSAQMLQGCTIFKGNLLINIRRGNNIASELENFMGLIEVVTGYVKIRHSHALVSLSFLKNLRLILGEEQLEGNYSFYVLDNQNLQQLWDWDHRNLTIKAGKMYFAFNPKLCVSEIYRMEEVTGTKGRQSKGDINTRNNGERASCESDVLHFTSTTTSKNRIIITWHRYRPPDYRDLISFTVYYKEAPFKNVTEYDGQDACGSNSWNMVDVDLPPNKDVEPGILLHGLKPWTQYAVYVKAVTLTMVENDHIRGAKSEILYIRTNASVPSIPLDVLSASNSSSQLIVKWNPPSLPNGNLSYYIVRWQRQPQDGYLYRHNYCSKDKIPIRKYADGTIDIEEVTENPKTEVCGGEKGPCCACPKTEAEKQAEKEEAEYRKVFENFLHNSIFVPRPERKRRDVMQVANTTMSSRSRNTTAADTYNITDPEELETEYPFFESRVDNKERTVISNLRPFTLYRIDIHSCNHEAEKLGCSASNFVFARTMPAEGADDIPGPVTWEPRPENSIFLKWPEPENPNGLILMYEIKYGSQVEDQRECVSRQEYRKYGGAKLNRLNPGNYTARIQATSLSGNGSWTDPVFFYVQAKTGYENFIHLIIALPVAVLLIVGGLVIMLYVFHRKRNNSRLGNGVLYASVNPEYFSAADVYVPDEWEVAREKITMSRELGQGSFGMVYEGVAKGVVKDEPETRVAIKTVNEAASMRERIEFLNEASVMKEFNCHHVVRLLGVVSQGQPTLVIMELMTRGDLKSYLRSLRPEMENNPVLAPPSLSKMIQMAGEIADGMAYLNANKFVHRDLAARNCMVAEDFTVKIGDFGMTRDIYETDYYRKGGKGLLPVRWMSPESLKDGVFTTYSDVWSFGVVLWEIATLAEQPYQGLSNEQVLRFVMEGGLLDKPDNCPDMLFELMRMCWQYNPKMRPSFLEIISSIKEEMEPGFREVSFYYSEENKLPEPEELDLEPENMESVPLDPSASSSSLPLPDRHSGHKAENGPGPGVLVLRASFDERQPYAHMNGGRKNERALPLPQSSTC
Chain of PTK2 (human) (Q05397 whole entry, looked up): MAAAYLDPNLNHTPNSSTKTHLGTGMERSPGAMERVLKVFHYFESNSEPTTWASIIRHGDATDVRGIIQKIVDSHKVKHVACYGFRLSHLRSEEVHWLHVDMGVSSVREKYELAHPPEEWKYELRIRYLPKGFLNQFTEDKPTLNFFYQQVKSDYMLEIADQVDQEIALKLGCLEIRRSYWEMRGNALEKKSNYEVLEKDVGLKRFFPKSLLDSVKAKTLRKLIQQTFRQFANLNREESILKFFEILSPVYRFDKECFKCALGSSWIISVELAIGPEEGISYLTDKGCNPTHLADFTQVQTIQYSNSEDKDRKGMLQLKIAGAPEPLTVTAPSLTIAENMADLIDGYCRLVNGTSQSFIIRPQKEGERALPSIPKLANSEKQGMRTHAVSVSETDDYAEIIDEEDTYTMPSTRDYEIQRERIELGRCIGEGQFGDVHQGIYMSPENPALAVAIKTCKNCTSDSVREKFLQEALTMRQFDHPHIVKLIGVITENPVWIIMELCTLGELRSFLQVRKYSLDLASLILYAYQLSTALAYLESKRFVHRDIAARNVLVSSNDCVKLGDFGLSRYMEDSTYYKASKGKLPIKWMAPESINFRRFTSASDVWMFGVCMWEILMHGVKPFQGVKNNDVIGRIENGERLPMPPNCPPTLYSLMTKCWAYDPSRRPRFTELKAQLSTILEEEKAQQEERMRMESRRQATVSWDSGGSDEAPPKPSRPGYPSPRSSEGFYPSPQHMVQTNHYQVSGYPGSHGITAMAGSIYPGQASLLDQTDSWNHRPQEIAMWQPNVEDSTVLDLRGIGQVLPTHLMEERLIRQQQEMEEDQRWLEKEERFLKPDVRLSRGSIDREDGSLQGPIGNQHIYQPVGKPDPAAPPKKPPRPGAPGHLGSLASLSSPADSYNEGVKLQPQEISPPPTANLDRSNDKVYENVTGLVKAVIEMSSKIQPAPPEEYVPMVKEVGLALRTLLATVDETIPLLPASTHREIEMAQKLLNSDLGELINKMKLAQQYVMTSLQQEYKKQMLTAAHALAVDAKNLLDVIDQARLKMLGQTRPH
Chain of AURKA (human) (O14965 whole entry, looked up): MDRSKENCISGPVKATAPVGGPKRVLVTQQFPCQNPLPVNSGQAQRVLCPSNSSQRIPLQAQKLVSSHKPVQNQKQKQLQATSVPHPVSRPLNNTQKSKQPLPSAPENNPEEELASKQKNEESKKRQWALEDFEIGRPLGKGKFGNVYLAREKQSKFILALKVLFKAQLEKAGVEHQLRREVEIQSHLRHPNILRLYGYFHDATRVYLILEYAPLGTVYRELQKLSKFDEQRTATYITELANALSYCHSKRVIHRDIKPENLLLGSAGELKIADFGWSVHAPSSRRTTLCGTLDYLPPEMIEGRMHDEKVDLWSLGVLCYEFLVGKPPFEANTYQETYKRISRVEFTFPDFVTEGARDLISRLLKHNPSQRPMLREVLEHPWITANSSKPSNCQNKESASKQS
Chain of AXL (human) (P30530 whole entry, looked up): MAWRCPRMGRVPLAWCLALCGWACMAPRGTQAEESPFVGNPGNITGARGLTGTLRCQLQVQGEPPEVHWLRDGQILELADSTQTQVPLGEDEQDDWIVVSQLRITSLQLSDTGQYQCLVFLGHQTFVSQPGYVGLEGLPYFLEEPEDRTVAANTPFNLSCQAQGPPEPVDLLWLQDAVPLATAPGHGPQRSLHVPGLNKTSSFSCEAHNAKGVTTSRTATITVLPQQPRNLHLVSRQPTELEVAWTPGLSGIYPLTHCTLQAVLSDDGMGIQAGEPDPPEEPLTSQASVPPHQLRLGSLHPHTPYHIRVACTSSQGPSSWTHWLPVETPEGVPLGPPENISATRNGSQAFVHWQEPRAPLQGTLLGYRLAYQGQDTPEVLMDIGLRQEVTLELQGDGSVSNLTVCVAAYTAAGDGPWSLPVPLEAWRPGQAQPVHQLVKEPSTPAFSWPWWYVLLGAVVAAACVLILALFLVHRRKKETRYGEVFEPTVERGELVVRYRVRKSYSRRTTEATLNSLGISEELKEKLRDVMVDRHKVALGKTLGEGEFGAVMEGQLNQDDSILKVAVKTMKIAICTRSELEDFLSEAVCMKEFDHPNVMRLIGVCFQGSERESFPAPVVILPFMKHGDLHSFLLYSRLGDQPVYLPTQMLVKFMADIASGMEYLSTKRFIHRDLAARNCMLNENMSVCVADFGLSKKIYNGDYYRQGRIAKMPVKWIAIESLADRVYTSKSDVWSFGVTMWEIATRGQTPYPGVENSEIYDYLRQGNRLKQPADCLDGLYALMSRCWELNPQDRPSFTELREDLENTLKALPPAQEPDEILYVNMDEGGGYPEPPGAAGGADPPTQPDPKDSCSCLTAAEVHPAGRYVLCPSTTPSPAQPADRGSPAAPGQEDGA
Chain of CDK2 CCNA2 (human) (P20248 whole entry, looked up, other chains not shown): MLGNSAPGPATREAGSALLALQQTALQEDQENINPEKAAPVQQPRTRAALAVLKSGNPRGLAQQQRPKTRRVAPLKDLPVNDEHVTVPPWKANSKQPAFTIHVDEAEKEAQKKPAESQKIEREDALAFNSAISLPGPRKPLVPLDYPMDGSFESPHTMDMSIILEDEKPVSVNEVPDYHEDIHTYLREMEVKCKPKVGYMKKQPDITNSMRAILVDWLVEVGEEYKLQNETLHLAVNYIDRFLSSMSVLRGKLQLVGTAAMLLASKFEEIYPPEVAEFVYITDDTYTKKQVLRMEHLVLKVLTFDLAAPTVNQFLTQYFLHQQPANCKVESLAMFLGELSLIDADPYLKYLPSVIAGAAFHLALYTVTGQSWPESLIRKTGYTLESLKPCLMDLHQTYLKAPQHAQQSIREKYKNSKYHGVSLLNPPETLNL
Chain of MAPK14 (human) (Q16539 whole entry, looked up): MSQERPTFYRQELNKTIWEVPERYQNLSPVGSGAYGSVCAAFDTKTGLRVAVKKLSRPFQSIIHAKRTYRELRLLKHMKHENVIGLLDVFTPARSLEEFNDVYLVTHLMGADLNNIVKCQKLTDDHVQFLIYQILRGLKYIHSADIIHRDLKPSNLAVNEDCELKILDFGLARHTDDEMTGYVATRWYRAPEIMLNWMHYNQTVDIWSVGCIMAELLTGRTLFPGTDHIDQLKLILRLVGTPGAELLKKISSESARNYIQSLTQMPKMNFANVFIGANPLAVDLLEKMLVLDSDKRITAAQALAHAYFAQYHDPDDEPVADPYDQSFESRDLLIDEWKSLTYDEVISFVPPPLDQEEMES

Row | SMILES | residual activity [1] [%] | residual activity [2] [%] | residual activity [3] [%] | residual activity [4] [%] | residual activity [6] [%] | residual activity [7] [%] | residual activity [8] [%] | residual activity [9] [%] | residual activity [10] [%] | residual activity [11] [%] | residual activity [12] [%] | residual activity [13] [%] | residual activity [14] [%] | residual activity [15] [%] | residual activity [16] [%] | residual activity [17] [%] | residual activity [18] [%] | residual activity [19] [%] | residual activity [20] [%] | residual activity [21] [%] | also measured
1 | Oc1ccc(CSc2nc(-c3ccncc3)c(-c3ccc(F)cc3)[nH]2)cc1 | 130 | 64 | 78 | 91 | 117 | 103 | 107 | 20 | 42 | 22 | 104 | 26 | 96 | 48 | 4 | 78 | 126 | 65 | 120 | 51 | residual activity [5]: 5%; residual activity [22]: 99%; residual activity [23]: 34%; residual activity [24]: 33%
2 | CC(Nc1cc(-c2nc(SCc3ccccc3)[nH]c2-c2ccc(F)cc2)ccn1)c1ccccc1 (stereo unspecified) | 66 | 64 | 58 | 44 | 17 | 27 | 78 | 16 | 31 | 21 | 20 | 39 | 50 | 20 | 3 | 43 | 43 | 45 | 38 | 17 | residual activity [22]: 82%; residual activity [23]: 14%; residual activity [24]: 13%
3 | Fc1ccc(-c2[nH]c(SCCc3ccccc3)nc2-c2ccncc2)cc1 | 122 | 75 | 78 | 84 | 72 | 59 | 96 | 24 | 48 | 41 | 43 | 45 | 69 | 81 | 41 | 66 | 77 | 80 | 93 | 56 | residual activity [22]: 95%; residual activity [23]: 43%; residual activity [24]: 51%
4 | Oc1cccc(CSc2nc(-c3ccncc3)c(-c3ccc(F)cc3)[nH]2)c1 | 144 | 52 | 55 | 76 | 126 | 121 | 95 | 3 | 35 | 2 | 79 | 7 | 91 | 17 | 2 | 58 | 121 | 35 | 103 | 42 | residual activity [22]: 88%; residual activity [23]: 12%; residual activity [24]: 18%
5 | On1c(/C=C/c2ccccc2)nc(-c2ccncc2)c1-c1ccc(F)cc1 | 76 | 18 | 18 | 42 | 20 | 21 | 68 | 1 | 19 | 4 | 13 | 9 | 48 | 9 | 3 | 23 | 51 | 31 | 51 | 7 | residual activity [22]: 65%; residual activity [23]: 5%; residual activity [24]: 5%
